Assay results: ChEMBL document CHEMBL1201862, “PubChem BioAssay data set” (2004)
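All cell lines were grown in 96-well plates and treated with compound for 48 hours. The concentration for 50% growth inhibition is given as GI50.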 Active and inactive are the calls of the source. Cut-off read from the data, not from the text of the source: active = GI50 up to about 1.1 µM and inactive = higher.

Assays:
Assay in all cases: NCI-60 cell line screen, 48 h
MCF7 = tested on: MCF7
NCI-H226 = tested on: NCI-H226
MDA-MB-435 = tested on: MDA-MB-435
SNB-19 = tested on: SNB-19
IGROV-1 = tested on: IGROV-1
KM12 = tested on: KM12
ACHN = tested on: ACHN
SF-295 = tested on: SF-295
HL-60 = tested on: HL-60
SK-MEL-2 = tested on: SK-MEL-2
CAKI-1 = tested on: CAKI-1
Malme-3M = tested on: Malme-3M
SF-268 = tested on: SF-268
SR = tested on: SR
UACC-257 = tested on: UACC-257
HCC 2998 = tested on: HCC 2998
NCI-H23 = tested on: NCI-H23
NCI/ADR-RES = tested on: NCI/ADR-RES
OVCAR-5 = tested on: OVCAR-5
A549 = tested on: A549
HOP-62 = tested on: HOP-62
SK-MEL-5 = tested on: SK-MEL-5
EKVX = tested on: EKVX
COLO 205 = tested on: COLO 205
RXF 393 = tested on: RXF 393
A498 = tested on: A498
UACC-62 = tested on: UACC-62
CCRF-CEM = tested on: CCRF-CEM
SNB-75 = tested on: SNB-75
MDA-MB-231 = tested on: MDA-MB-231
T47D = tested on: T47D
PC-3 = tested on: PC-3
786-0 = tested on: 786-0
K562 = tested on: K562
OVCAR-4 = tested on: OVCAR-4
LOX IMVI = tested on: LOX IMVI
HCT-116 = tested on: HCT-116
HCT-15 = tested on: HCT-15
BT-549 = tested on: BT-549
DU-145 = tested on: DU-145
SK-MEL-28 = tested on: SK-MEL-28
NCI-H522 = tested on: NCI-H522
MOLT-4 = tested on: MOLT-4
TK-10 = tested on: TK-10
HOP-92 = tested on: HOP-92
SN12C = tested on: SN12C
UO-31 = tested on: UO-31
OVCAR-8 = tested on: OVCAR-8
MDA-N = tested on: MDA-N
U-251 = tested on: U-251
SW-620 = tested on: SW-620
HT-29 = tested on: HT-29
OVCAR-3 = tested on: OVCAR-3
NCI-H460 = tested on: NCI-H460
SK-OV-3 = tested on: SK-OV-3
M14 = tested on: M14

C=CCN1CC2CN=NC2(C#N)C1 (stereo unspecified)
GI50 (MCF7): > 100 µM (inactive) | GI50 (NCI-H226): > 100 µM (inactive) | GI50 (MDA-MB-435): > 100 µM (inactive) | GI50 (SNB-19): > 100 µM (inactive) | GI50 (IGROV-1): > 100 µM (inactive) | GI50 (KM12): > 100 µM (inactive) | GI50 (ACHN): > 100 µM (inactive) | GI50 (SF-295): > 100 µM (inactive) | GI50 (HL-60): > 100 µM (inactive) | GI50 (SK-MEL-2): > 100 µM (inactive) | GI50 (CAKI-1): > 100 µM (inactive) | GI50 (Malme-3M): > 100 µM (inactive) | GI50 (SF-268): > 100 µM (inactive) | GI50 (SR): > 100 µM (inactive) | GI50 (UACC-257): > 100 µM (inactive) | GI50 (HCC 2998): > 100 µM (inactive) | GI50 (NCI-H23): > 100 µM (inactive) | GI50 (NCI/ADR-RES): > 100 µM (inactive) | GI50 (OVCAR-5): > 100 µM (inactive) | GI50 (A549): > 100 µM (inactive) | GI50 (HOP-62): > 100 µM (inactive) | GI50 (SK-MEL-5): > 100 µM (inactive) | GI50 (EKVX): > 100 µM (inactive) | GI50 (COLO 205): > 100 µM (inactive) | GI50 (RXF 393): > 100 µM (inactive) | GI50 (A498): > 100 µM (inactive) | GI50 (UACC-62): > 100 µM (inactive) | GI50 (CCRF-CEM): > 100 µM (inactive) | GI50 (SNB-75): > 100 µM (inactive) | GI50 (MDA-MB-231): > 100 µM (inactive) | GI50 (T47D): > 100 µM (inactive) | GI50 (PC-3): > 100 µM (inactive) | GI50 (786-0): > 100 µM (inactive) | GI50 (K562): > 100 µM (inactive) | GI50 (OVCAR-4): > 100 µM (inactive) | GI50 (LOX IMVI): > 100 µM (inactive) | GI50 (HCT-116): > 100 µM (inactive) | GI50 (HCT-15): > 100 µM | GI50 (BT-549): > 100 µM (inactive) | GI50 (DU-145): > 100 µM (inactive) | GI50 (SK-MEL-28): > 100 µM (inactive) | GI50 (NCI-H522): > 100 µM (inactive) | GI50 (MOLT-4): > 100 µM (inactive) | GI50 (TK-10): > 100 µM (inactive) | GI50 (HOP-92): 2.33 µM (inactive) | GI50 (SN12C): > 100 µM (inactive) | GI50 (UO-31): > 100 µM (inactive) | GI50 (OVCAR-8): > 100 µM (inactive) | GI50 (MDA-N): > 100 µM (inactive) | GI50 (U-251): > 100 µM (inactive) | GI50 (SW-620): > 100 µM (inactive) | GI50 (HT-29): > 100 µM (inactive) | GI50 (OVCAR-3): > 100 µM (inactive) | GI50 (NCI-H460): > 100 µM (inactive)

CC1(C)O[C@@H](CP(c2cccc3ccccc23)c2cccc3ccccc23)[C@H](CP(c2cccc3ccccc23)c2cccc3ccccc23)O1
GI50 (MCF7): > 100 µM (inactive) | GI50 (NCI-H226): > 100 µM (inactive) | GI50 (MDA-MB-435): > 100 µM (inactive) | GI50 (SNB-19): > 100 µM (inactive) | GI50 (IGROV-1): > 100 µM (inactive) | GI50 (KM12): > 100 µM (inactive) | GI50 (ACHN): > 100 µM (inactive) | GI50 (SF-295): > 100 µM (inactive) | GI50 (SK-MEL-2): > 100 µM (inactive) | GI50 (CAKI-1): > 100 µM (inactive) | GI50 (SF-268): > 100 µM (inactive) | GI50 (SR): > 100 µM (inactive) | GI50 (UACC-257): > 100 µM (inactive) | GI50 (HCC 2998): > 100 µM (inactive) | GI50 (NCI-H23): > 100 µM (inactive) | GI50 (NCI/ADR-RES): > 100 µM (inactive) | GI50 (OVCAR-5): > 100 µM (inactive) | GI50 (A549): > 100 µM (inactive) | GI50 (HOP-62): > 100 µM (inactive) | GI50 (SK-MEL-5): > 100 µM (inactive) | GI50 (SK-OV-3): > 100 µM (inactive) | GI50 (EKVX): > 100 µM (inactive) | GI50 (COLO 205): > 100 µM (inactive) | GI50 (RXF 393): > 100 µM (inactive) | GI50 (UACC-62): > 100 µM (inactive) | GI50 (CCRF-CEM): > 100 µM (inactive) | GI50 (SNB-75): > 100 µM (inactive) | GI50 (MDA-MB-231): > 100 µM (inactive) | GI50 (T47D): > 100 µM (inactive) | GI50 (PC-3): > 100 µM (inactive) | GI50 (786-0): > 100 µM (inactive) | GI50 (K562): > 100 µM (inactive) | GI50 (OVCAR-4): > 100 µM (inactive) | GI50 (LOX IMVI): > 100 µM (inactive) | GI50 (HCT-116): > 100 µM (inactive) | GI50 (HCT-15): > 100 µM | GI50 (BT-549): > 100 µM (inactive) | GI50 (DU-145): > 100 µM (inactive) | GI50 (SK-MEL-28): > 100 µM (inactive) | GI50 (NCI-H522): > 100 µM (inactive) | GI50 (MOLT-4): > 100 µM (inactive) | GI50 (TK-10): > 100 µM (inactive) | GI50 (SN12C): > 100 µM (inactive) | GI50 (UO-31): > 100 µM (inactive) | GI50 (OVCAR-8): > 100 µM (inactive) | GI50 (MDA-N): > 100 µM (inactive) | GI50 (U-251): > 100 µM (inactive) | GI50 (SW-620): > 100 µM (inactive) | GI50 (M14): > 100 µM (inactive) | GI50 (HT-29): > 100 µM (inactive) | GI50 (OVCAR-3): > 100 µM (inactive) | GI50 (NCI-H460): > 100 µM (inactive)
